Assays:
[1] = tested on: HUVEC (human umbilical vein endothelial cells); test: MTS cytotoxicity assay, HUVEC normal cell line; assay type: cell-based; details: 24 h of incubation
Description: (§1) LoVo, MDA-MB-231 and HUVEC human cell lines were purchased from American Type Culture Collection (ATCC). Cells were routinely maintained in culture either in culture flasks or seeded in plates, using Dulbecco’s modified Eagle medium/nutrient mixture F-12 (DMEM:F12) medium supplemented with […], 10% fetal calf serum (Sigma Aldrich, St. Louis, MO, USA), 100 units/mL penicillin, 100 μg/mL streptomycin and incubated at 37 °C in 5% CO2 humidified atmosphere.
(§2) Cytotoxicity studies were performed in 96-well microtiter plates with flat bottoms (Falcon, Teterboro, NJ, USA) using the CellTiter 96 Aqueous One Solution Cell Proliferation Assay (Promega, Madison, WI, USA), an MTS-based colorimetric assay. Metabolically active cells have the ability to reduce MTS [3-(4,5-dimethylthiazol-2-yl)-5-(3-carboxymethoxyphenyl)-2-(4-sulfophenyl)-2H-tetrazolium, inner salt], a yellow tetrazolium salt, to a colored formazan that is soluble in the culture medium. Briefly, 15 × 10^3 cells per well were cultured in 100 µL culture medium. After 24 h, adherent cells were treated with different concentrations of the studied compounds, as well as adriamycin (Adr) and cisplatin (Cis-Pt), used as positive controls for 24 h and 48 h, respectively. Each well was then filled with 20 µL of reagent containing MTS and PES (phenazine ethosulfate, a cationic dye with excellent chemical stability that binds to MTS and produces a stable solution). The resulting formazan was determined using a Tecan GENios Spectrophotometer (Tecan US, Durham, NC, USA) by measuring the absorbance at λ = 492 nm after incubation for 4 h at 37 °C with moderate agitation every 15 min. The cytotoxicity tests were performed in triplicate, with results reported as mean values with standard deviations (SD). The cytotoxicity of DMSO was also investigated under the same conditions, and no harmful effect was found at doses less than 1%.
(§3) Data were expressed as cell viability by comparing with untreated cells considered 100% viable, using the following formula:(1) Cell viability (%)=absorbance of treated cells−absorbance of culture medium/absorbance of untreated cells−absorbance of culture medium

[2] = tested on: LoVo (human colorectal adenocarcinoma) cell line; test: MTS cytotoxicity assay, LoVo cell line; assay type: cell-based; details: 48 h of incubation
Description: as §1, §2, §3

[3] = biological target: T1, human serum albumin (HSA) (Homo sapiens, UniProt P02768); test: HSA fluorescence quenching binding study; details: for Ka (association binding constant), HSA / n1 (Number of Binding Sites), HSA / n2 (Hill Coefficient), HSA / Kd / fa (fraction of fluorophore accessible to the quencher), HSA / Kq (bimolecular quenching constant), HSA: 298 K; for Kd: read-out: Kd (dissociation constant), HSA; for fa (fraction of fluorophore accessible to the quencher), HSA / Ksv* (Stern–Volmer quenching constant), HSA: compound 0–8 µM; for Ksv* (Stern–Volmer quenching constant), HSA: Tris-HCl pH 7.4, 298 K; for Kq (bimolecular quenching constant), HSA: from Ksv* with τ0 = 10^−8 s
T1 construct: purchased Sigma-Aldrich Chemical Co. (Schnelldorf, Germany)
T1 sequence (P02768 25-609): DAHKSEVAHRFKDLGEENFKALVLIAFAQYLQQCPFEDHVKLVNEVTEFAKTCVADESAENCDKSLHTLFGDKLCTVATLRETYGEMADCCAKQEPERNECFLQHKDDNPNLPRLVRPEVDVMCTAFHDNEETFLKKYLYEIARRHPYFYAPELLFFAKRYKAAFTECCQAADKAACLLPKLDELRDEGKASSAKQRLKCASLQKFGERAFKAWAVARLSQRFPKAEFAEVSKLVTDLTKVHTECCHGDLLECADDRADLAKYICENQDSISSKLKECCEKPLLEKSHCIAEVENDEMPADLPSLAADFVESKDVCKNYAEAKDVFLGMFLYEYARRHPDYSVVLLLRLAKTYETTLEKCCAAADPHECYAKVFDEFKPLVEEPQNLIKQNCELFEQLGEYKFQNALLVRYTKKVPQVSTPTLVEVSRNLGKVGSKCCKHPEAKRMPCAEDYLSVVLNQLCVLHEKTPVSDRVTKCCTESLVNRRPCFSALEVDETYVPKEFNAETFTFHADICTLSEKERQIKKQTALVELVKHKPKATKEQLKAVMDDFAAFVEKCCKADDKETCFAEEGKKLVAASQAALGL
Description: (§4) Using a Jasco FP 6500 spectrofluorometer (Jasco, Tokyo, Japan) and quartz cells with a 1 cm path length, the fluorescence spectra of HSA and apo-Tf were recorded in the presence and absence of the examined substances. The 2.5 mL samples containing 2.5 µM HSA or 1 µM apo-Tf were titrated by adding 5 µL of the tested substance at a time, a volume that corresponded to a 1 µM increase in concentration. The concentration range used for these experiments varied from 0 to 8 µM. The relevant spectra were collected in the emission domains of 300–500 nm (HSA) and 305–500 nm (apo-Tf) after 3 min of continuous stirring at room temperature, using excitation wavelengths of 280 nm (HSA) and 295 nm (apo-Tf).
(§5) Experiments were conducted in a pH = 7.4 Tris-HCl buffer (5 mM Tris-HCl/50 mM NaCl for HSA and 5 mM Tris-HCl/50 mM NaCl/25 mM NaHCO3 for apo-Tf).
(§6) The following modified Stern–Volmer equation has been used to calculate the Stern–Volmer constant, which will be denoted as KSV* in order to differentiate it from the Stern–Volmer constant calculated for the DNA binding experiments:(5) F0/F0−F=1/faKsv*[Q]+1/fa where F0 and F are the fluorescence intensities in the absence and presence of the tested compounds, fa is the fraction of fluorophore accessible to the quencher (the tested compounds), [Q] is the quencher concentration, and KSV* (M^−1) is the Stern–Volmer constant; the plot of F0/(F0 − F) against 1/[Q] yields KSV as the slope and fa as the y intercept.
(§7) Subsequently, the bimolecular quenching rate constant was obtained by using Equation (6):(6) Ksv^*=Kqτ0
(§8) Kq (M^−1·s^−1) is the bimolecular quenching rate constant and τ0 is the fluorophore’s lifespan in the absence of the investigated chemicals (10^−8 s). The value of Kq can be used to assess whether the quenching phenomena have an underlying static or dynamic mechanism.
(§9) Using the following equation, the affinity constant (Ka) and the number of binding sites (n) have been calculated: (7) lgF0−F/F=lgKa+nlg[Q]
(§10) The binding affinity, Kd, can be calculated using the quadratic function below:(8) F0−F/F0−Fb=[P]t+[Q]+Kd−([P]t+[Q]+Kd)^2−4[P]t[Q]/2[P]t where F and F0 are the fluorescence intensities of the protein in the presence and absence of the quencher, respectively, Fb is the fluorescence of a fully bound protein–quencher, [P]t is the total concentration of the protein, and [Q] is the concentration of the added quencher. Each binding isotherm was plotted against the total quencher concentration in solution as a function of bound to free protein (F/F0).
(§11) The isotherms were then fitted using the nonlinear regression function below:(9) F/F0= F1+(F2−F1)Kdn/Kdn+[Q]^n where n represents the Hill coefficient, F1 and F2 are the horizontal and vertical asymptotes, respectively. The Kd in Equation (9) is derived from the quadratic binding function (Equation (8)).
(§12) Data were collected in triplicate, averaged, and expressed as mean value ± standard deviation (SD). All graph fitting models were defined and built using OriginPro® 2018.

[4] = biological target: T2, apotransferrin (apo-Tf) (Homo sapiens, UniProt P02787); test: Apo-Tf fluorescence quenching binding study; details: for Ka (association binding constant), Apo-Tf / n1 (Number of Binding Sites), Apo-Tf / Kd / fa (fraction of fluorophore accessible to the quencher), Apo-Tf / Kq (bimolecular quenching constant), Apo-Tf / n2 (Hill Coefficient), Apo-Tf: 298 K; for Kd: read-out: Kd (dissociation constant), Apo-Tf; for fa (fraction of fluorophore accessible to the quencher), Apo-Tf / Ksv* (Stern–Volmer quenching constant), Apo-Tf: compound 0–8 µM; for Ksv* (Stern–Volmer quenching constant), Apo-Tf: Tris-HCl pH 7.4, 298 K; for Kq (bimolecular quenching constant), Apo-Tf: from Ksv* with τ0 = 10^−8 s
T2 construct: purchased Sigma-Aldrich Chemical Co. (Schnelldorf, Germany)
T2 sequence (P02787 20-698): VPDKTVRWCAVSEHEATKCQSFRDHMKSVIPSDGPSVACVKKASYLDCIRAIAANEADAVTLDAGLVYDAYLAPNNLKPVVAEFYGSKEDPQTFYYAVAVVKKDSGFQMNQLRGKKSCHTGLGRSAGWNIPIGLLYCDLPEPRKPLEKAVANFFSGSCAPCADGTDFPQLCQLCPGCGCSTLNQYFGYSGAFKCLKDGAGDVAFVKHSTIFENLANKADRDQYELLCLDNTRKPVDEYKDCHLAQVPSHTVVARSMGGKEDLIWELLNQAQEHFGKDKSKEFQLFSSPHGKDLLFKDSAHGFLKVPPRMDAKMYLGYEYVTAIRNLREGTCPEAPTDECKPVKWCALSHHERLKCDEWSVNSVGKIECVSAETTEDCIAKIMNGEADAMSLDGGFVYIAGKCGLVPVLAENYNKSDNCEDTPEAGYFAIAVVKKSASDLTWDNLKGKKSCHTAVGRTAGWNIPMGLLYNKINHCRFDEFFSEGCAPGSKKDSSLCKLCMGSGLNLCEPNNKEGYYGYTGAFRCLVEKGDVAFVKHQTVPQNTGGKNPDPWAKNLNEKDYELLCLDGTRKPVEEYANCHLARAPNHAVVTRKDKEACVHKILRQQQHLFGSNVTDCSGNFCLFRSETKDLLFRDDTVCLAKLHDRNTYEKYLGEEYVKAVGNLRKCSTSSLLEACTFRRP
Description: as §4, §5, §6, §7, §8, §9, §10, §11, §12

[5] = tested on: EB–DNA system (CT-DNA); test: Competitive binding assay with ethidium bromide (EB) through fluorescence spectroscopy; parameters: species or system calf; details: EB 2 µM, CT-DNA 10 µM, compound 0–40 µM
Description: The fluorescence spectra were recorded using 1.6 mL samples containing 10 µM CT-DNA, 2 µM EB, and increasing amounts (0–40 µM with an increment of 5 µM) of tested compounds; the samples were prepared by keeping the components in contact for 10 min at room temperature, under continuous stirring and in the dark. The excitation wavelength was 500 nm, and the spectra were recorded between the wavelengths of 520 and 800 nm. A Jasco FP 6500 fluorometer and quartz cells with a 1 cm route length were employed. The classical Stern–Volmer equation (Equation (3)) was used to interpret the obtained data:(3) F0/F=1+KSV·[Q] F0 and F are the fluorescence intensities of the EB–DNA samples in the absence and presence of the tested compounds, respectively; KSV is the Stern–Volmer constant, which was computed as the slope from the plot of F0/F vs. [Q], where [Q] is the chemical concentration.
The binding ratio was plotted against the logarithm of the concentration in comparison with a control sample exposed solely to DMSO. (4) y=A1+(A2−A1)×x^n/K50^n+x^n
For fitting data points, the modified Hill function with offset (Origin®) was used: where y represents the binding ratio (F/F0), x represents the concentration, A1 represents the minimum of y values, A2 represents the maximum of y values, K50 represents the concentration corresponding to 50% binding or the half maximum binding constant, and n represents the Hill coefficient.

| Structure (SMILES) | IC50 [1] | IC50 [2] | Ka (association binding constant), HSA ([3]; HSA 2.5 µM) | n1 (Number of Binding Sites), HSA ([3]; HSA 2.5 µM) | n2 (Hill Coefficient), HSA ([3]; HSA 2.5 µM) | Kd ([3]; HSA 2.5 µM) | fa (fraction of fluorophore accessible to the quencher), HSA ([3]; HSA 2.5 µM) | Ksv* (Stern–Volmer quenching constant), HSA ([3]; HSA 2.5 µM) | IC50 (μM) LoVo [2] | Ka (association binding constant), Apo-Tf ([4]; apo-Tf 1 µM) | n1 (Number of Binding Sites), Apo-Tf ([4]; apo-Tf 1 µM) | Kd ([4]; apo-Tf 1 µM) | fa (fraction of fluorophore accessible to the quencher), Apo-Tf ([4]; apo-Tf 1 µM) | Ksv* (Stern–Volmer quenching constant), Apo-Tf ([4]; apo-Tf 1 µM) | Kq (bimolecular quenching constant), Apo-Tf [4] | EB Displacement Assay K50 (half maximum binding constant) [5] | KSV, Stern–Volmer quenching constant (EB–DNA) [5] | Kq (bimolecular quenching constant), HSA [3] | n2 (Hill Coefficient), Apo-Tf ([4]; apo-Tf 1 µM) | also measured |
| --- | --- | --- | --- | --- | --- | --- | --- | --- | --- | --- | --- | --- | --- | --- | --- | --- | --- | --- | --- | --- |
| N.N.[Cl][Pt][Cl] [Cis-Pt, cisplatin, reference compound] | 78.5 ± 16 µM | 38.6 ± 4.63 µM | – | – | – | – | – | – | – | – | – | – | – | – | – | – | – | – | – | – |
| CCn1cc(C(=O)[O-])c(=O)c2ccc(C)nc21.CCn1cc(C(=O)[O-])c(=O)c2ccc(C)nc21.O.O.O.O.[Eu+3].[OH-] [Eu(nal)2, Eu(C12H11N2O3)2(OH)(H2O)·3H2O] | > 200 µM | > 200 µM | (11.99 ± 1.38) × 10^5 M^−1 | 1.13 ± 0.01 | 1.14 ± 0.27 | 4.63 ± 0.97 µM | 1.17 ± 0.04 | (1.75 ± 0.11) × 10^5 M^−1 | not toxic | (1.02 ± 0.13) × 10^4 M^−1 | 0.80 ± 0.01 | 7.07 ± 6.13 µM | 0.71 ± 0.01 | (1.85 ± 0.06) × 10^5 M^−1 | 1.85e+13 M⁻¹ s⁻¹ | 34.75 ± 3.69 µM | 8.35 ± 0.13 M^−1 (×10^3) | – | – | quenching effect on HSA fluorescence peak ([3]; HSA 2.5 µM, compound up to 8 µM): 67%; quenching effect on apo-Tf fluorescence peak ([4]; apo-Tf 1 µM, compound up to 8 µM): 41% |
| CCn1cc(C(=O)[O-])c(=O)c2ccc(C)nc21.CCn1cc(C(=O)[O-])c(=O)c2ccc(C)nc21.O.O.O.O.[Gd+3].[OH-] [Gd(nal)2, Gd(C12H11N2O3)2(OH)(H2O)·3H2O] | > 200 µM | > 200 µM | (15.52 ± 2.93) × 10^5 M^−1 | 1.15 ± 0.01 | 1.20 ± 0.23 | 4.79 ± 0.84 µM | 1.25 ± 0.03 | (1.51 ± 0.07) × 10^5 M^−1 | not toxic | (3.46 ± 1.34) × 10^4 M^−1 | 0.94 ± 0.03 | 8.87 ± 6.2 µM | 0.92 ± 0.07 | (0.78 ± 0.09) × 10^5 M^−1 | 7.8e+12 M⁻¹ s⁻¹ | 34.11 ± 8.90 µM | 10.47 ± 0.13 M^−1 (×10^3) | 1.51e+13 M⁻¹ s⁻¹ | 1.20 ± 0.40 | – |
| CCn1cc(C(=O)[O-])c(=O)c2ccc(C)nc21.CCn1cc(C(=O)[O-])c(=O)c2ccc(C)nc21.O.O.O.[La+3].[OH-] [La(nal)2, La(C12H11N2O3)2(OH)(H2O)·2H2O] | 114 ± 46.8 µM | 25.1 ± 9.11 µM | (9.03 ± 1.04) × 10^5 M^−1 | 1.09 ± 0.01 | 1.32 ± 0.11 | 3.35 ± 0.11 µM | 1.09 ± 0.02 | (1.09 ± 0.02) × 10^5 M^−1 | – | (6.94 ± 2.32) × 10^4 M^−1 | 1.00 ± 0.03 | 5.43 ± 1.46 µM | 1.20 ± 0.49 | (0.44 ± 0.23) × 10^5 M^−1 | 4.4e+12 M⁻¹ s⁻¹ | 31.39 ± 13.66 µM | 8.90 ± 0.17 M^−1 (×10^3) | 1.09e+13 M⁻¹ s⁻¹ | 1.82 ± 0.55 | – |

From PMC9412414, “A Study on Repositioning Nalidixic Acid via Lanthanide Complexation: Synthesis, Characterization, Cytotoxicity and DNA/Protein Binding Studies” (Pharmaceuticals, 2022)
